From patent US10039764B2, “Treatment and diagnosis of cancer and precancerous conditions using PDE10A inhibitors and methods to measure PDE10A expression” (University of South Alabama, priority 2013, dated 2018)
Like-named read-outs stand apart in the source and are kept apart here.

Columns and labels:
[1] = tested on: normal colonocytes (NCM460); assay: Growth assay (Cell Titer Glo), normal colonocytes NCM460; assay type: cell-based, human; details: for IC50: Homo sapiens, NCM460
From the text: (§1) All cell lines comprising the NCI-60 cancer cell panel were obtained from the NCI Developmental Therapeutics Program and maintained under the same standard conditions. The human normal colonocyte (NCM460) cell line was purchased from Incell (San Antonio, Tex.) and grown according to the manufacturer's specifications. The human colon adenoma cell line, LT97, was a gift from Dr. Brigitte Marian (Medical University Vienna, Austria) and grown according to the provider's specifications. Human mammary epithelial cells (HMEC) were purchased from Lonzo and grown using culture conditions as recommended by the supplier.
(§2) Ninety-six (96)-well microtiter plates were seeded at a density of 5,000 cells per well. For drug treatment, cells were treated with compounds or vehicle control, and incubated at 37° C. for 72 hours. For siRNA assays, cells were transfected with siRNA under the same conditions described above. The effect of treatment with inhibitors or siRNA knockdown of PDE10A on growth was measured using the Cell Titer Glo Assay (Promega), which measures viable cell number based on ATP content.
(§3) The effect of the inhibitors on the growth of human colon tumor and normal colonocytes was measured using the Cell Titer Glo Cell Viability Assay (Promega) as described above. The inhibitory potency toward purified recombinant phosphodiesterase enzymes was measured using the IMAP Phosphodiesterase Assay as described in the Materials and Methods section.

[2] = tested on: SW480 human colon tumor cells; assay: Growth assay (Cell Titer Glo), SW480; assay type: cell-based; details: PDE10 Inhibitors table, read-out: Growth Inhibition IC50, SW-480
From the text: as §1, §2, §3

[3] = molecular target: T1, PDE5A (Homo sapiens, UniProt O76074); assay: IMAP fluorescence polarization PDE assay, PDE5A; assay type: biochemical; details: substrate cGMP; read-out: Phosphodiesterase Inhibition PDE5A (PDE5) cGMP IC50
T1 construct: purchased BPS Biosciences
Protocol: (§4) MY5445 was purchased from EMD Millipore. […] Recombinant PDE enzymes were purchased from BPS Biosciences. DMSO was used as the vehicle for testing effects of all compounds.
(§5) PDE enzymatic activity was measured using IMAP fluorescence polarization assay (Molecular Devices. Inc.). […] For experiments involving cell extracts, 2×10^5 cells per well were plated on a six-well tissue culture plate 72 hours prior to cell lysis.
as §3

[4] = tested on: HCT116 human colon tumor cells; assay: Growth assay (Cell Titer Glo), HCT116; assay type: cell-based; details: for HCT116 colon tumor cell growth, single agents and combination (in words): FIG. 12A
From the text: as §1, §2
(§6) Effect of various PDE isozyme inhibitors on the growth of human colon tumor cells HCT116 and HT29 was determined using the Cell Titer Glo Cell Viability Assay (Promega) following 72 hours of treatment.
as §3

[5] = tested on: NCI-60 cancer cell line panel; assay: Growth inhibition in NCI-60 cancer cell line panel; assay type: cell-based, human; details: FIG. 13
Protocol: Tumor growth inhibitory activity was measured using a cell viability assay following 72 hours of treatment. Potency values (GI50) as measured in each tumor cell line are shown on the y axis.
The human colon tumor cell lines, HCT116, HT29, SW480, SW620, colo741, Caco-2, DLD-1, LS174T, and RKO and human breast tumor cell lines, MCF7, T47D, ZR75, MDA-MB-231, HS578T, and MDA-MB-468 were purchased from ATCC and grown under standard cell culture conditions in RPMI 1640 medium containing 5% fetal bovine serum (FBS) at 37° C. in a humidified atmosphere with 5% CO2. All cell lines comprising the NCI-60 cancer cell panel were obtained from the NCI Developmental Therapeutics Program and maintained under the same standard conditions. The human normal colonocyte (NCM460) cell line was purchased from Incell (San Antonio, Tex.) and grown according to the manufacturer's specifications. The human colon adenoma cell line, LT97, was a gift from Dr. Brigitte Marian (Medical University Vienna, Austria) and grown according to the provider's specifications. […]
Ninety-six (96)-well microtiter plates were seeded at a density of 5,000 cells per well. […] The effect of treatment with inhibitors or siRNA knockdown of PDE10A on growth was measured using the Cell Titer Glo Assay (Promega), which measures viable cell number based on ATP content. […]

[6] = tested on: human colon tumor cells; assay: Colon tumor cell growth (Cell Titer Glo), cell line not specified; assay type: cell-based; details: 72 hours of treatment
Protocol: as §2, §6

[7] = tested on: HT29 human colon tumor cells; assay: Growth assay (Cell Titer Glo), HT29; assay type: cell-based
From the text: as §1, §2, §6, §3

[8] = molecular target: T2, PDE10A (Homo sapiens, UniProt Q9Y233); assay: IMAP fluorescence polarization PDE assay, PDE10A; assay type: biochemical; details: recombinant enzyme
T2 construct: other: substrate cGMP; recombinant enzyme; other: substrate cAMP
Protocol: as §4, §5, §3

[9] = molecular target: T3, PDE3A (Homo sapiens, UniProt Q14432); details: reported; substrate column not distinguished; read-out: Phosphodiesterase Inhibition PDE3A IC50 (reported); cited from earlier work
T3 construct: purchased BPS Biosciences

[10] = molecular target: PDE7A1 (Homo sapiens, UniProt Q13946); details: @ 3 μM; cited from earlier work
[11] = tested on: other PDE isozymes; details: reported, read-out: Phosphodiesterase Inhibition, Others, IC50 (reported); cited from earlier work
[12] = tested on: PDE10A; details: reported; substrate column not distinguished; read-out: Phosphodiesterase Inhibition PDE10A IC50 (reported); cited from earlier work
[13] = tested on: β-catenin and survivin; assay: Western blotting of β-catenin and survivin levels in HCT116; assay type: cell-based, human; details: FIG. 12B
Protocol: Western blot analysis was performed as described previously (Tinsley, et al., supra). The following antibodies were used to detect specific proteins: PDE2 (GeneTex, 1:1000), PDE3 (Abcam, 1:1000), PDE5 (Cell Signaling, 1:1000), PDE10 (GeneTex, 1:1000), survivin (Cell Signaling, 1:1000), GAPDH (Cell Signaling, 1:5000).

[14] = tested on: cGMP PDE activity in lysates from HCT116 cells; assay: cGMP PDE activity in HCT116 cell lysates (IMAP); assay type: biochemical, human; details: FIG. 11B
Protocol: Cell growth was measured by the Cell Titer Glo cell viability assay (Promega) following 72 hours of treatment, while cGMP PDE activity was measuring using the IMAP fluorescence polarization PDE assay (Molecular Devises).
as §5

[15] = tested on: patients with metastatic disease; details: Lundholm et al. 1994; cited from earlier work
[16] = PDE10 Inhibitors table, read-out: Growth Inhibition IC50, NCM-460
[17] = Homo sapiens, HCT-116, PDE10 Inhibitors table, read-out: Growth Inhibition IC50, HCT-116
[18] = Homo sapiens, HT-29, PDE10 Inhibitors table, read-out: Growth Inhibition IC50, HT-29
[19] = 72 hours of treatment, PDE isozyme inhibitor table

T2 sequence (Q9Y233 290-1055 limits assumed): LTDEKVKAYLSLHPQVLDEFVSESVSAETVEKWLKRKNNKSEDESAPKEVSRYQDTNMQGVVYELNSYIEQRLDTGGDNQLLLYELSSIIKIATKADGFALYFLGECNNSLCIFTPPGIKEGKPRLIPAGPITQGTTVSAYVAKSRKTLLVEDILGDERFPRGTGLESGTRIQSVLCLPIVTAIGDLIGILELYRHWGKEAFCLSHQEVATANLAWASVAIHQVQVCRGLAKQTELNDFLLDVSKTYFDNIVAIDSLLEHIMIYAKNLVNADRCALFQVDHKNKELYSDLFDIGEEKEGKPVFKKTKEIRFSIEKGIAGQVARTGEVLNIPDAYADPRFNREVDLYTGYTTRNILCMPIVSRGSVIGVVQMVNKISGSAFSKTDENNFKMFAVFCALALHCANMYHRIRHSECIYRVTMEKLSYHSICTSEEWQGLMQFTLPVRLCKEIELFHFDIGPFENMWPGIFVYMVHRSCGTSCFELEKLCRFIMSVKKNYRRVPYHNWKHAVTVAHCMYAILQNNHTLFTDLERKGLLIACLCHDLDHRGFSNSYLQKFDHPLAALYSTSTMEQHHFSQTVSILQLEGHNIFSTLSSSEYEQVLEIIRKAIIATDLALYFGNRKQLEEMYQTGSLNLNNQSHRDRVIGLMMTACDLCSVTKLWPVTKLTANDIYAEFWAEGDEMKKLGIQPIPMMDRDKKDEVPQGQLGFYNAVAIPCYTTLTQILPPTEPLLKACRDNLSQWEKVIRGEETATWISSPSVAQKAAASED
PDE7A1, sequence (Q13946 whole entry, species assumed): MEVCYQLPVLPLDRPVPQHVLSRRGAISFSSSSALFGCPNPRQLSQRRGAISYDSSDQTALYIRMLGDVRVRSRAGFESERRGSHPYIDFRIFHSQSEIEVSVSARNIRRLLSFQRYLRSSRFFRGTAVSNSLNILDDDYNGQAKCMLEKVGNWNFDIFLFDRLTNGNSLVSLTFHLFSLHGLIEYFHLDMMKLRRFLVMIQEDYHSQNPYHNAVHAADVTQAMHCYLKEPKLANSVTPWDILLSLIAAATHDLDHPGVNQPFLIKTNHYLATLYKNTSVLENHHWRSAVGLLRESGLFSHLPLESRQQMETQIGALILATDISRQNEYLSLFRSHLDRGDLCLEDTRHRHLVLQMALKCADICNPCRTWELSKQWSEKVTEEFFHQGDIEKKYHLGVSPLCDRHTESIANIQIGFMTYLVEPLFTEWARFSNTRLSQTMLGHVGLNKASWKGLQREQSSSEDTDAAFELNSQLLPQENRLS
T3 sequence (Q14432 whole entry): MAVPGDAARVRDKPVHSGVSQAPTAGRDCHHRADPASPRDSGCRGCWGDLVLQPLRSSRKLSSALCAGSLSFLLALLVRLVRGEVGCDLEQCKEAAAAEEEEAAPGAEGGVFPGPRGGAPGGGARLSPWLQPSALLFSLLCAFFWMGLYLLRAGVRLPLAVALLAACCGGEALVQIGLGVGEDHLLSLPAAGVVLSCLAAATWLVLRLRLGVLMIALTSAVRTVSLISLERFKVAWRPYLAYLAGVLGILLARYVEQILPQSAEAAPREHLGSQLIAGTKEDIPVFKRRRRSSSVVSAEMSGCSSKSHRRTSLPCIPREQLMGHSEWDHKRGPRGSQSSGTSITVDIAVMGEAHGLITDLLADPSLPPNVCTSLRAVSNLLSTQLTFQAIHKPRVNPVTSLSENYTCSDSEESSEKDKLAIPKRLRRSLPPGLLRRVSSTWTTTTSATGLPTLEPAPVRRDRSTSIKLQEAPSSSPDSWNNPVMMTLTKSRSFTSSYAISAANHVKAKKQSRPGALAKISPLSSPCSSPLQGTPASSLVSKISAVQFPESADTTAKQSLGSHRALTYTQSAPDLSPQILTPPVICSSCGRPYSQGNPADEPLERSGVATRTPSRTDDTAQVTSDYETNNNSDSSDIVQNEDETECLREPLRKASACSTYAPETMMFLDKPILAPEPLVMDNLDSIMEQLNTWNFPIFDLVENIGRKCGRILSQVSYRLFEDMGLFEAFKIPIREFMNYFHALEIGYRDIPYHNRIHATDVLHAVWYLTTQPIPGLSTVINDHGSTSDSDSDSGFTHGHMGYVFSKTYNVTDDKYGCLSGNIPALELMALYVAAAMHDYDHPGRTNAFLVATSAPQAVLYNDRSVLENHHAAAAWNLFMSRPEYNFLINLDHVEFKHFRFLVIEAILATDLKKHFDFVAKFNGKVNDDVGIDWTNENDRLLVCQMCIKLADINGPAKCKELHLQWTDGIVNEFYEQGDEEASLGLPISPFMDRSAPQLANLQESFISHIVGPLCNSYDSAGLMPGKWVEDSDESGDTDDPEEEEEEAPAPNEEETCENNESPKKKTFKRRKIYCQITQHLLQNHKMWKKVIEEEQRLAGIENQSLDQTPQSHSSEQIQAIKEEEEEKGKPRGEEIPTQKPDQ

Cn1cc(-c2ccncc2)c(-c2ccc(OCc3ccc4ccccc4n3)cc2)n1 [PF-2545920, 2-[4-(1-methyl-4-pyridin-4-yl-1H-pyrazol-3-yl)-phenoxymethyl]-quinoline]
growth inhibition in normal colonocytes (in words) ([1]; 72 hours of treatment, FIG. 11D): appreciably less effective | IC50 [1, 16]: 18.8 µM | IC50 [2]: 3.7 µM | IC50 [3]: > 50 µM | IC50 [4, 17]: 8.4 µM | tumor cell growth inhibitory activity in the NCI-60 cancer cell line panel (in words) [5]: broad range of tumor cell growth inhibitory activity | GI50 ([5]; Homo sapiens, 72 hours of treatment, average over panel, read-out: average GI50 value in NCI60 cancer cell line panel): 17.7 µM | colon tumor cell growth inhibition (in words) [6]: potently inhibited | IC50 [7, 18]: 0.95 µM

Cc1nc2c3cc(Br)ccc3nc(SCC#N)n2n1 [Compound no. 5, 2-{(9-bromo-2-methyl-[1,2,4]triazolo[1,5-c]quinazolin-5-yl)thio}acetonitrile]
IC50 ([8]; substrate cAMP, read-out: Phosphodiesterase Inhibition PDE10A cAMP IC50): 0.00866 µM | IC50 ([8]; substrate cGMP, read-out: Phosphodiesterase Inhibition PDE10A cGMP IC50): 0.0089 µM | IC50 [4, 17]: 9.93 µM

COc1cc2c(cc1OC)-c1c(-c3cccnc3)ncn1CC2 [Compound no. 7, 8,9-dimethoxy-1-(pyridin-3-yl)-5,6-dihydroimidazo[5,1-a]isoquinoline]
IC50 [9]: 0.449 µM | IC50 [2]: > 50 µM | Phosphodiesterase Inhibition PDE7A1 (reported) [10]: 45% | IC50 [4, 17]: > 50 µM | IC50 [11]: > 4 µM | IC50 [12]: 0.029 µM | IC50 [7, 18]: > 50 µM

COc1ccc(Cc2nccc3cc(OC)c(OC)cc23)cc1OC [Papaverine, papaverine]
IC50 ([1]; 72 hours of treatment, FIG. 11, read-out: IC50, growth of normal colonocytes (NCM460)): 118 µM | IC50 [1, 16]: > 100 µM | normal colonocytes (NCM460) less sensitive than colon tumor cell lines ([1]; NCM460 vs HCT116 and HT29): approximately 11 fold | IC50 [2]: 11.2 µM | HCT116 colon tumor cell growth, single agents and combination (in words) [4]: suppressed | IC50 ([4]; Homo sapiens, HCT-116, 72 h, read-out: Growth Inhibition (IC50/μM) HCT116): 9 µM | IC50 ([4]; Homo sapiens, HCT-116, 72 hours of treatment, FIG. 11, read-out: IC50, growth of HCT116 colon tumor cells): 9 µM | IC50 [4, 17]: 6.7 µM | β-catenin and survivin levels in HCT116 colon tumor cells (in words) [13]: reduced | cGMP hydrolysis in lysates from HCT116 cells (in words) [14]: inhibited | IC50 ([7]; Homo sapiens, HT-29, 72 h, read-out: Growth Inhibition (IC50/μM) HT29): 13 µM | IC50 ([7]; Homo sapiens, HT-29, 72 hours of treatment, FIG. 11, read-out: IC50, growth of HT29 colon tumor cells): 13 µM | IC50 [7, 18]: 24.5 µM

CCCCCC[C@@H]([C@@H](C)O)n1cnc2c(N)ncnc21 (racemic) [EHNA]
Growth Inhibition (IC50/μM) HCT116 [4, 19]: Inactive | Growth Inhibition (IC50/μM) HT29 [7, 19]: Inactive

CN1CC(=O)N2[C@H](c3ccc4c(c3)OCO4)c3[nH]c4ccccc4c3C[C@@H]2C1=O [Tadalafil, tadalafil]
IC50 ([4]; Homo sapiens, HCT-116, 72 hours of treatment, PDE isozyme inhibitor table, read-out: Growth Inhibition (IC50/μM) HCT116): 38 µM

COc1ccc2c(c1)c(CC(=O)O)c(C)n2C(=O)c1ccc(Cl)cc1 [indomethacin]
extension of survival [15]: approximately 9 months

Clc1cccc(Nc2nnc(-c3ccccc3)c3ccccc23)c1 [MY5445]
IC50 ([4]; 72 hours of treatment, PDE isozyme inhibitor table, read-out: Growth Inhibition (IC50/μM) HCT116): 18 µM | HCT116 colon tumor cell growth, single agents and combination (in words) [4]: suppressed | β-catenin and survivin levels in HCT116 colon tumor cells (in words) [13]: reduced | IC50 ([7]; 72 hours of treatment, PDE isozyme inhibitor table, read-out: Growth Inhibition (IC50/μM) HT29): 11 µM

COc1cc(/C=N/NC(=O)C(OC)c2ccc(-n3cccn3)cc2)cc(OC)c1Br (centres unmarked) [Compound no. 4, (E)-2-{4-(1H-pyrazol-1-yl)phenyl}-N′-(4-bromo-3,5-dimethoxybenzylidene)-2-methoxyacetohydrazide]
IC50 ([4]; Homo sapiens, HCT-116, read-out: Growth Inhibition IC50, HCT-116): 3.13 µM

O=C1CCc2cc(OCCCCc3nnnn3C3CCCCC3)ccc2N1 [Cilostazol, cilostazol]
Growth Inhibition (IC50/μM) HCT116 [4, 19]: Inactive | Growth Inhibition (IC50/μM) HT29 [7, 19]: Inactive

COCc1nc2c([nH]1)c(=O)n(C)c(=O)n2CC(C)C [8-MeoM-IBMX]
Growth Inhibition (IC50/μM) HCT116 [4, 19]: Inactive | Growth Inhibition (IC50/μM) HT29 [7, 19]: Inactive

COc1ccc(C2CNC(=O)C2)cc1OC1CCCC1 (centres unmarked) [Rolipram, rolipram]
Growth Inhibition (IC50/μM) HCT116 [4, 19]: Inactive | Growth Inhibition (IC50/μM) HT29 [7, 19]: Inactive
